Data on one compound can be found in patent US8822754B2, “Ecdysone receptor-based inducible gene expression system” (Intrexon Corporation, priority 2000, dated 2014).

The subject of experiment [1] is GAL4CfEcRVP16. The experiment is described as follows: Transactivation of reporter genes through switch 1.6 in CHO cells. The class given is cell-based, Choristoneura fumiferana. To be noted: switch 1.6 GAL4CfEcRVP16, pGAL4RELuc. The protocol:
(§1) This construct was prepared so that both the GAL4 DNABD and the VP16AD were placed on the same molecule. GAL4DNABD (SEQ ID NO: 41) and VP16AD (SEQ ID NO: 45) were fused to CfEcRDEF (SEQ ID NO: 3) at N- and C-termini respectively.
(§2) The cells were harvested and reporter activity was assayed.
(§3) Cells were harvested 24-48 hr after adding ligands. […] Twenty μl of lysate was assayed.

Experiment [2] has as its system VP16CfEcR. The experiment is described as follows: Transactivation of reporter genes through switch 1.7 in CHO cells. It is filed as cell-based, Choristoneura fumiferana. As to conditions: switch 1.7 VP16CfEcR, pEcRELuc. As for the experimental part: (§4) Six ecdysone response elements (“EcRE”; SEQ ID NO: 59) from the hsp27 gene were placed upstream of the promoter and a luciferase gene (SEQ ID NO: 57). This switch most probably uses endogenous RXR.
as §2, §3
On the technique in general: In a reporter assay the amount or activity of a reporter protein is the signal.

The subject of experiment [3] is CfVgRXR. The experiment is described as follows: Transactivation of reporter genes through switch 1.10 in CHO cells. As to conditions: switch 1.10 CfVgRXR, pIND(SP1)LacZ. It is filed as cell-based, Choristoneura fumiferana. The protocol: This example was prepared in the same way as switch 1.9 except MmRXR (SEQ ID NO: 53) was deleted.
as §2, §3

For experiment [4], the system named is GAL4CfEcRVP16. The experiment is described as follows: Transactivation of reporter genes through switch 1.6 in 293 cells. The class given is cell-based, Choristoneura fumiferana. To be noted: switch 1.6 GAL4CfEcRVP16, pGAL4RELuc. As for the experimental part: as §1
(§5) The same procedures described for CHO were followed for 293 cells except that the cells were plated in biocoated plates to avoid clumping.
as §3

For experiment [5], the system named is VP16CfEcR. Put plainly: Transactivation of reporter genes through switch 1.7 in 293 cells. To be noted: switch 1.7 VP16CfEcR, pEcRELuc. The class given is cell-based, Choristoneura fumiferana. The protocol: as §4, §5, §3
In experiment [6] the target is T1, DmVgRXR + MmRXR (Drosophila melanogaster, UniProt P34021, E282G/G283S/G286V).
T1 construct: host or cells: CHO, NIH3T3, 293 or CV1 cells (one cell line per assay)
T1 sequence (P34021 whole entry E282G/G283S/G286V): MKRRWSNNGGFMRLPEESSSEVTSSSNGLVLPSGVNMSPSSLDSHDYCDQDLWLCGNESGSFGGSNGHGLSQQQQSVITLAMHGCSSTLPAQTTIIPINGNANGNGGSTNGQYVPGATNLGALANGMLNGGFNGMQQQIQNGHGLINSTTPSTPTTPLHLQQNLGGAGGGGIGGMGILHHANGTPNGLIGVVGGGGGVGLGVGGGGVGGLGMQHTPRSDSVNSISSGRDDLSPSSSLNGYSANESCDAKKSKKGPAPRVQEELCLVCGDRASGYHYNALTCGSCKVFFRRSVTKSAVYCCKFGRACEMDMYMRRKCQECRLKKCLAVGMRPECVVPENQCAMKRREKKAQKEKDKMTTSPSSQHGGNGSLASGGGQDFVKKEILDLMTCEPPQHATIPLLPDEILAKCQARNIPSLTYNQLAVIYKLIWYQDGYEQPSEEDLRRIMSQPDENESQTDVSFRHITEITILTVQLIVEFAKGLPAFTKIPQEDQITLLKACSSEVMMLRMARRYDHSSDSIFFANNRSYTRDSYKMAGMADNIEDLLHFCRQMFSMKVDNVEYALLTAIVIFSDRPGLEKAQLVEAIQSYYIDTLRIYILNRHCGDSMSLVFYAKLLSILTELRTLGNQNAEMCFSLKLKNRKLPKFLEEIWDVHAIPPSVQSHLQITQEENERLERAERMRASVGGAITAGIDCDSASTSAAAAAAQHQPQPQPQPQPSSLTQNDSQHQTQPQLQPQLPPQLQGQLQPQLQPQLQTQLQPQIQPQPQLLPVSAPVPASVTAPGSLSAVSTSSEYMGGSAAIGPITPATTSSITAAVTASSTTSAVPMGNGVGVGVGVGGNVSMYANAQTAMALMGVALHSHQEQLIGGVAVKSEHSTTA
T1 sequence (P28700 whole entry, further chain): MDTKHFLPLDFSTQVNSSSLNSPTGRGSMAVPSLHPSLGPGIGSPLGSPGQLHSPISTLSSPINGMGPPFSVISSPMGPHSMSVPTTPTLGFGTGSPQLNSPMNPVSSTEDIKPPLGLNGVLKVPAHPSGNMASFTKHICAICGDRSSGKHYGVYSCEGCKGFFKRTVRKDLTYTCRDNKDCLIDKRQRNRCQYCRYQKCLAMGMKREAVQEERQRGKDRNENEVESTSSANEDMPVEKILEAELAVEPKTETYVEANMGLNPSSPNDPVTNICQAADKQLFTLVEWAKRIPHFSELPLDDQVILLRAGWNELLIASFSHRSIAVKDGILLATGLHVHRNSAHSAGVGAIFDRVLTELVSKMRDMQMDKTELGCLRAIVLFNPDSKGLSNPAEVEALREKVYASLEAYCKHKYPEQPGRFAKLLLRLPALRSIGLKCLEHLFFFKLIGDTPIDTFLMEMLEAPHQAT
The experiment is described as follows: Transactivation of reporter genes through switch 1.8 in 293 cells. The class given is cell-based. To be noted: switch 1.8 DmVgRXR + MmRXR, pIND(SP1)LacZ.
From the text: (§6) This system was purchased from Invitrogen Corp., Carlsbad, Calif. It comprises a Drosophila melanogaster EcR (“DmEcR”) with a modified DNABD fused to VP16AD and placed under the control of a CMV promoter (SEQ ID NO: 60). Full length MmRXR (SEQ ID NO: 53) was placed under the control of the RSV promoter (SEQ ID NO: 61). The reporter, pIND(SP1)LacZ, contains five copies of a modified ecdysone response element (“EcRE”, E/GRE), three copies of an SP1 enhancer, and a minimal heat shock promoter, all of which were placed upstream to the LacZ reporter gene.
as §5, §3

The subject of experiment [7] is GAL4EcR + VP16RXR. The experiment is described as follows: Transactivation of reporter genes through switch 1.1 in CV1 cells. The class given is cell-based, Choristoneura fumiferana. As to conditions: switch 1.1 GAL4EcR + VP16RXR, pGAL4RELuc. The protocol: (§7) The same procedures described for NIH3T3 cells were followed for CV1 cells
as §3

Experiment [8] concerns GAL4RXR + VP16CfEcR. The experiment is described as follows: Transactivation of reporter genes through switch 1.3 in CV1 cells. As to conditions: switch 1.3 GAL4RXR + VP16CfEcR, pGAL4RELuc. The class given is cell-based, Choristoneura fumiferana. As for the experimental part:
as §7, §3

The subject of experiment [9] is GAL4CfEcRVP16. Put plainly: Transactivation of reporter genes through switch 1.6 in CV1 cells. As to conditions: switch 1.6 GAL4CfEcRVP16, pGAL4RELuc. The class given is cell-based, Choristoneura fumiferana. As for the experimental part: as §1, §7, §3
Experiment [10] relates to VP16CfEcR. Put plainly: Transactivation of reporter genes through switch 1.7 in CV1 cells. As to conditions: switch 1.7 VP16CfEcR, pEcRELuc. The class given is cell-based, Choristoneura fumiferana. The protocol:
as §4, §7, §3

The target in experiment [11] is T1, DmVgRXR + MmRXR. Put plainly: Transactivation of reporter genes through switch 1.8 in CV1 cells. The class given is cell-based. To be noted: switch 1.8 DmVgRXR + MmRXR, pIND(SP1)LacZ.
From the text: as §6, §7, §3

Experiment [12] has as its system CfEcR/RXR-based switch. The experiment is described as follows: Luciferase reporter assay of truncated CfEcR and MmRXR receptor pairs in NIH3T3 cells (Example 2). The class given is cell-based, Choristoneura fumiferana. As to conditions: NIH3T3 cells, 0, 1, 5 or 25 uM ligand, 48 hr; FIGS. 11-14. As for the experimental part: Briefly, polynucleotides encoding EcR or RXR receptors were truncated at the junctions of A/B, C, D, E and F domains and fused to either a GAL4 DNA binding domain encoding polynucleotide (SEQ ID NO: 41) for CfEcR, or a VP16 activation domain encoding polynucleotide (SEQ ID NO: 45) for MmRXR as described in Example 1. The resulting receptor truncation/fusion polypeptides were assayed in NIH3T3 cells. Plasmid pFRLUC (Stratagene) encoding a luciferase polypeptide was used as a reporter gene construct and pTKRL (Promega) encoding a Renilla luciferase polypeptide under the control of the constitutive TK promoter was used to normalize the transfections as described above. The analysis was performed in triplicates and mean luciferase counts were determined as described above.
Gene expression cassettes comprising polynucleotides encoding either full length or truncated CfEcR polypeptides fused to a GALA. […] The cells were harvested, lysed and luciferase reporter activity was measured in the cell lysates. […]

Structures are written as SMILES.

As to `CCc1c(OC)cccc1C(=O)NN(C(=O)c1cc(C)cc(C)c1)C(C)(C)C` [N-(2-ethyl-3-methoxybenzoyl)-N′-(3,5-dimethylbenzoyl)-N′-tert-butylhydrazine], the figures for the “Mean Fold Activation with 50 μM N-(2-ethyl-3-methoxybenzoyl)-N′-(3,5-dimethylbenzoyl)-N′-t-butylhydrazine” value in experiment [1], in experiment [2] and in [3] were 9 fold, 36 fold and 29 fold, respectively. Besides, the “Mean Fold Activation Through N-(2-ethyl-3-methoxybenzoyl)-N′-(3,5-dimethylbenzoyl)-N′-t-butylhydrazine” value in experiment [4] was 3 fold; in experiment [5], 2 fold; in [6], 21 fold; in experiment [7], 279 fold; in experiment [8] it was 25 fold; in experiment [9], 6 fold. The “Mean Fold Activation Through N-(2-ethyl-3-methoxybenzoyl)-N′-(3,5-dimethylbenzoyl)-N′-t-butylhydrazine” value is recorded as 1 fold in experiment [10] and 12 fold in [11]. In addition, in experiment [12], the “sensitivity of the EcR/RXR switch to the ligand” value was “much more sensitive”.
